Test systems include A498; DMS-273; HCC 2998; HOP-92; LXFL 529; M14; Malme-3M; NCI-H226; RPMI-8226; SNB-75; SR; TK-10; XF498; OVCAR-3; K562; 786-0.
Holding throughout (assay): DTP human tumour cell line panel, 48 h

Structures are written as SMILES.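 Tested at 5 concentrations; 48 h exposure; 96-well plates; endpoints linearly interpolated, else capped at highest concentration. GI50 marks 50% less growth.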 Activity calls are given as the source filed them. Rule as the data show it: active = GI50 up to about 1.1 µM and inactive = higher.

As for `O=C1c2cccc(O)c2C(=O)c2c(O)cc(CO)cc21` [ALOE-EMODIN], the GI50 with A498 was 74.3 µM (inactive); in the experiment with DMS-273, 27.5 µM (inactive); in the experiment on HCC 2998 it was 83.9 µM (inactive); in the experiment on HOP-92 it was > 100 µM (inactive); in the experiment with LXFL 529, 56 µM (inactive); with M14, 38.4 µM (inactive). In addition, the GI50 is 20.8 µM (inactive) in the experiment on Malme-3M; > 100 µM (inactive) in the experiment on NCI-H226; 31.5 µM (inactive) in the experiment with RPMI-8226; 72.8 µM (inactive) with SNB-75; 32.9 µM (inactive) in the experiment with SR; > 100 µM (inactive) in the experiment on TK-10. Moreover, the GI50 in the experiment on XF498 is > 100 µM (inactive).
Consider `C=C1C(=O)OC2C[C@@]3(C)CCCC(=C)C3CC12` (stereo partly drawn), for which the GI50 in the experiment with A498 is 6.89 µM (inactive); with DMS-273, 2.54 µM (inactive); in the experiment on HCC 2998 it was 13.6 µM (inactive); with HOP-92, 4.26 µM (inactive); in the experiment with LXFL 529, 3.2 µM (inactive); in the experiment with M14, 6.34 µM (inactive). Moreover, the GI50 is 3.52 µM (inactive) in the experiment on Malme-3M; 12.9 µM (inactive) with NCI-H226; 10.4 µM (inactive) with OVCAR-3; 7.23 µM (inactive) with SNB-75; > 100 µM (inactive) in the experiment on SR; 11.4 µM (inactive) in the experiment with TK-10. Besides, the GI50 with XF498 is 3.69 µM (inactive).
In the case of `CC1C(=O)C(C)C(c2ccco2)N(N=O)C1c1ccco1` (stereo not drawn), the GI50 in the experiment on A498 was > 100 µM (inactive); in the experiment on DMS-273, > 100 µM (inactive); in the experiment with HCC 2998 it was > 100 µM (inactive); with HOP-92 it was > 68.4 µM (inactive); in the experiment with K562 it was > 100 µM (inactive); in the experiment on Malme-3M it was > 100 µM (inactive). The GI50 with NCI-H226 was > 100 µM (inactive); in the experiment on OVCAR-3, > 100 µM (inactive); with RPMI-8226 it was > 100 µM (inactive); in the experiment on SNB-75, > 82.8 µM (inactive); in the experiment with XF498 it was < 0.01 µM (active).
Consider `CC1=N/C(=C\c2ccc(N)cc2)C(=O)N1Nc1nnc(NN2C(=O)/C(=C/c3ccc(N)cc3)N=C2C)c2ccccc12`, for which the GI50 with 786-0 is 32.5 µM (inactive); in the experiment on A498, > 100 µM (inactive); in the experiment with DMS-273 it was 77.3 µM (inactive); in the experiment with HOP-92, > 100 µM (inactive); in the experiment with K562, 27.4 µM (inactive); with LXFL 529, 36.3 µM (inactive). The GI50 in the experiment with M14 was > 100 µM (inactive); in the experiment with NCI-H226, 14.3 µM (inactive); with RPMI-8226 it was 26.4 µM (inactive); in the experiment on SNB-75 it was 5.05 µM (inactive); in the experiment with SR it was 30.1 µM (inactive).
For `CC(Sc1ccccc1)C(CO)(CO)[N+](=O)[O-]` (stereo not drawn), the GI50 is 16.7 µM (inactive) in the experiment with DMS-273; 17.2 µM (inactive) in the experiment on HCC 2998; 11.2 µM (inactive) in the experiment with K562; 13.7 µM (inactive) in the experiment with LXFL 529; 16.9 µM (inactive) in the experiment on M14; 18.9 µM (inactive) with Malme-3M. For the same molecule, the GI50 in the experiment with NCI-H226 was 16.5 µM (inactive); in the experiment on OVCAR-3, 15.2 µM (inactive); in the experiment on RPMI-8226, 18.9 µM (inactive); with SNB-75, 20.5 µM (inactive); with SR, 2.34 µM (inactive); in the experiment on TK-10, 18.9 µM (inactive).
Consider `CCC1C(C#N)=C(O)NC(O)=C1C#N`, for which the GI50 with A498, in the experiment on DMS-273, in the experiment on HCC 2998, in the experiment on HOP-92, in the experiment on LXFL 529 and with M14 was > 100 µM (inactive) each time. Further, the GI50 with Malme-3M, in the experiment on NCI-H226, in the experiment with OVCAR-3, in the experiment with RPMI-8226, in the experiment on SNB-75 and with TK-10 was > 100 µM (inactive) each time. The GI50 in the experiment on XF498 is > 100 µM (inactive).
Consider `CCOC(=O)Cc1cc(OC)c(OC)cc1/C(Cl)=C(\C=O)c1ccc(OC)c(OC)c1`, for which the GI50 in the experiment with DMS-273 was 19.5 µM (inactive); in the experiment with HOP-92, 1 µM (active); in the experiment on K562, 17.2 µM (inactive); in the experiment with M14, 16.1 µM (inactive); in the experiment on Malme-3M it was 27.4 µM (inactive); with OVCAR-3, 13.8 µM (inactive). In addition, the GI50 in the experiment on RPMI-8226 is 9.75 µM (inactive); with SNB-75, 32.1 µM (inactive); in the experiment with TK-10, 26 µM (inactive); with XF498, 20 µM (inactive).
As to `O=C(CCN1CCOCC1)/C(=C/c1ccccc1)c1ccccc1`, the GI50 was 10.1 µM (inactive) in the experiment with A498; 6.28 µM (inactive) in the experiment on DMS-273; 15 µM (inactive) in the experiment on HCC 2998; 3.5 µM (inactive) in the experiment with HOP-92; 1.89 µM (inactive) with K562; 2.24 µM (inactive) with Malme-3M. The GI50 in the experiment on NCI-H226 was 7.55 µM (inactive); in the experiment on OVCAR-3, 3.76 µM (inactive); in the experiment with RPMI-8226 it was 2 µM (inactive); in the experiment with SNB-75, 9.14 µM (inactive); with XF498, 6.5 µM (inactive).
In the case of `O=C(N/C(=C\c1ccccc1[N+](=O)[O-])c1nc2ccccc2[nH]1)c1ccccc1`, the GI50 with DMS-273 is > 100 µM (inactive); with HCC 2998 it was > 100 µM (inactive); in the experiment on HOP-92, 40.1 µM (inactive); in the experiment with K562, 43.9 µM (inactive); with LXFL 529, 59.4 µM (inactive); in the experiment with M14 it was > 100 µM (inactive). Besides, the GI50 in the experiment with Malme-3M was > 100 µM (inactive); in the experiment with OVCAR-3, 68.1 µM (inactive); in the experiment on SR, 37.6 µM (inactive); in the experiment on TK-10, > 100 µM (inactive); in the experiment on XF498 it was > 100 µM (inactive).
For the molecule `Cc1nc(O)nc(O)c1/C=C/C(=O)O`, the GI50 with A498 is > 1000 µM (inactive); with DMS-273, > 1000 µM (inactive); in the experiment with HCC 2998, > 1000 µM (inactive); in the experiment with HOP-92, 56.6 µM (inactive); in the experiment on K562, > 1000 µM (inactive); in the experiment with Malme-3M, > 1000 µM (inactive). Besides, the GI50 in the experiment with NCI-H226, in the experiment with OVCAR-3, with RPMI-8226, in the experiment with SNB-75 and with XF498 was > 1000 µM (inactive) throughout.
`OC(c1cc2ccccc2[nH]1)C(O)(c1cc2ccccc2[nH]1)c1cc2ccccc2[nH]1` (stereo not drawn): the GI50 was 6.89 µM (inactive) in the experiment on 786-0; 17.9 µM (inactive) in the experiment with DMS-273; 8.09 µM (inactive) in the experiment with HCC 2998; 14.9 µM (inactive) in the experiment on HOP-92; 10.9 µM (inactive) with K562; 10 µM (inactive) with LXFL 529. Moreover, the GI50 was 28.4 µM (inactive) with Malme-3M; 11.8 µM (inactive) with NCI-H226; 4.28 µM (inactive) in the experiment with OVCAR-3; 7.11 µM (inactive) in the experiment with RPMI-8226; 7.69 µM (inactive) with SR; 40.1 µM (inactive) in the experiment with TK-10.

One may read the GI50 as the concentration that inhibits growth by half.

The values above are taken from ChEMBL document CHEMBL1201862, “PubChem BioAssay data set” (2004).
